Source: US20190211066A1 (INSTITUT NATIONAL DE LA SANTE ET DE LA RECHERCHE M EDICALE …, priority 2010, published 2019)
Entries after “also recorded” stand apart in the source; their conditions may differ.

Columns and labels:
hCMEC/D3 cells [1] = test: Growth (size) of Nm colonies on cells under flow; format: cell-based, human
Procedure: (§1) hCMEC/D3 cells were grown on disposable flow chambers (15 μ-Slide VI, IBIDI) coated with 5 μg/cm^2 of rat-tail collagen type I. For experiments investigating Nm colony growth under shear stress, 10^7 bacteria were introduced into the flow chamber and allowed to adhere for […] without flow. Subsequently, a flow corresponding to a shear stress of 0.2 dyn/cm^2 was applied using a syringe pump (Harvard Apparatus). For adhesion assays under shear stress, 10^7 bacteria were allowed to adhere for 20 min under a shear stress of 0.04 dyn/cm^2, then the chambers were washed 1 min under a shear stress of 1 dyn/cm^2 (Mairey et al., 2008. J Exp Med 203, 1939-1950).
GFP expression in bacteria was induced by adding 1 mM IPTG in EBM2, 0.1% BSA. For experiments aimed at determining the growth of colonies under shear stress, 107 bacteria were then introduced into the flow chamber and allowed to adhere for 20 min without flow. Subsequently, a flow corresponding to a shear stress of 0.2 dyn/cm2 was applied using a syringe pump (Harvard Apparatus). For adhesion assays under shear stress, […] were introduced into the flow chamber and allowed to adhere for 20 min under a shear stress of 0.04 dyn/cm2, subsequently the chamber was washed 1 min under a shear stress of 1 dyn/cm2, Fluorescent bacteria in the chambers were observed using an Olympus CKX41 inverted microscope with a 20× objective, equipped with a shutter for the fluorescence I amp and a Hamamatsu ORCA285 CCD camera. Images were collected and processed using the Openlab software (Improvision). The field under observation corresponded to a surface of 425 μm by 320 μm with a resolution of 0.63 μm per pixel. Images were analyzed using the lmageJ software.

N. meningitidis = test: Nm growth in culture and bacterial aggregation; conditions: 100 μM isoproterenol; data not shown
hCMEC/D3 cell monolayers = test: Nm transmigration assay and cell-cell junction gaps; format: cell-based, human
Procedure: hCMEC/D3 cells were grown on 3 μm pore size MilliCell® inserts and infected at a MOI of 10, corresponding to 10^6 bacteria per insert. Four hours after infection, inserts were placed in a well with fresh medium. After additional 30 min, the number of bacteria, which had crossed the cell monolayer was determined by plating the content of the well and counting the number of colony forming units. To estimate the surface and number of macroscopic cell-cell junction openings, MilliCell® inserts were fixed in 4% PFA and immunostained for VE-cadherin and actin, Several baso-lateral cross-sections of each insert were acquired using a Leica SP5 confocal microscope. Surface and number of gaps within the hCMEC/D3 cell monolayer was determined using Leica Application Suite-AF (LAS-AF) software. Data were expressed as the number of gaps per 4×10 ^5 μm^2 of hCMEC/D3 cell monolayer surface. The size of gaps was determined using the apparent size of a Nm diplococcus as surface unit (approximately 1.7 μm^2).
Briefly, hCMEC/D3 cells were grown on 3 μm pore size MilliCell® inserts and infected at a MOI of 10 (10^6 bacteria per insert). […] After 30 min, the number of bacteria, which had crossed the monolayer of endothelial cells, was then measured by plating the content of dilutions of the lower compartment on agar plates and counting the number of colony forming units (CFU). […]

hCMEC/D3 cells [2] = test: Nm adhesion under shear stress (under flow); format: cell-based, human; conditions: pre-treatment with 10 μM isoproterenol, shear stress 0.04 dyn/cm^2
Procedure: as §1
GFP expression in bacteria was induced by adding 1 mM IPTG in EBM2, 0.1% BSA. […] For adhesion assays under shear stress, […] were introduced into the flow chamber and allowed to adhere for 20 min under a shear stress of 0.04 dyn/cm2, subsequently the chamber was washed 1 min under a shear stress of 1 dyn/cm2, Fluorescent bacteria in the chambers were observed using an Olympus CKX41 inverted microscope with a 20× objective, equipped with a shutter for the fluorescence I amp and a Hamamatsu ORCA285 CCD camera. […] Images were analyzed using the lmageJ software.

hCMEC/D3 cells [3] = test: Quantitative analysis of ezrin (and other proteins) recruitment under Nm bacterial colonies; conditions: for ezrin recruitment / ezrin-containing cortical plaques under Nm colonies after siRNA: infection three days after transfection
Excerpt: The recruitment efficiency was estimated by determining the proportion of colonies positive for the indicated protein of interest. At least 50 colonies were observed per coverslip. Each experiment was repeated several times in duplicate or triplicate. Data was examined for significance using Student's t-test.
(§2) The day before the infection, hCMEC/D3 cells were serum-starved in EBM-2 medium containing 0.1% Bovine Serum albumin (BSA). The day of infection, bacteria from an overnight culture were adjusted to OD600=0.05 and incubated for 2 h at 37° C. in pre-warmed starvation medium. Bacteria were added to cells at a multiplicity of infection (MOI) of 100 and allowed to adhere for 30 minutes. Unbound bacteria were washed with fresh medium and infection was allowed to proceed for 2 h. When needed, drugs were added to cell culture 1 h before infection. Bacteria were tested for growth and aggregation. […] The OD600 was then measured after 1, 2, 3, 4 and 8 h. Aggregation was determined after 2 h of incubation in EBM2, 0.1% BSA in the presence or absence of 100 μM isoproterenol at 37° C. in a 5% CO2 atmosphere under constant shaking.
For each Nm strain, the recruitment efficiency was estimated by determining the proportion of colonies that efficiently recruited the protein of interest in a “honeycomb shape” just under the colonies. […] At least 50 colonies were scrutinized per coverslip. Each experiment was repeated several times (at least 3). Data was examined for significance using Student's t-test.

hCMEC/D3 cells [4] = test: Static adhesion of Nm (absence of flow); conditions: isoproterenol pre-treatment
Procedure: as §2

Molecule: C=C[C@@]1(C)CC(=O)[C@]2(O)[C@@]3(C)[C@@H](O)CCC(C)(C)[C@@H]3[C@H](O)[C@H](OC(C)=O)[C@@]2(C)O1 [forskolin]
- number and size of Nm colonies under flow compared to control conditions (hCMEC/D3 cells [1]; pre-incubation 1 h): no significant effect

Molecule: CC(C)NCC(O)c1ccc(O)c(O)c1 (centres unmarked) [isoproterenol]
- direct inhibition of Nm growth in culture or of bacterial aggregation properties (N. meningitidis): not due to a direct inhibition
- number of cell-cell junction gaps induced by Nm (hCMEC/D3 cell monolayers; isoproterenol pre-treatment 10 μM, 1 h, gaps of all size): noticeably reduced
- number of meningococci crossing the monolayer (lower chamber of transwells) (hCMEC/D3 cell monolayers; isoproterenol pre-treatment 1 h, 10 μM): markedly reduced
- reduction of bacterial adhesion / number of colonies forming under flow (hCMEC/D3 cells [2]): 40%
- effect on Nm-induced ezrin recruitment (hCMEC/D3 cells [3]; hCMEC/D3 cells pre-treated with agonist for 2 h before Nm inoculation, saturating (10×KD) concentrations): showed an effect
- number of ezrin-containing cortical plaques (hCMEC/D3 cells [3]; isoproterenol dose response, hCMEC/D3 cells): dose-dependent reduction
- proportion of small colonies (≤12 μm^2, about 4 bacteria) under flow (hCMEC/D3 cells [1]; preincubation of cells for 1 h with 10 μM before perfusion of bacteria, control 20% after 4 h): ≈ 70%
- proportion of large colonies (48 μm^2 or more, ≥16 bacteria) under flow (hCMEC/D3 cells [1]; preincubation of cells for 1 h with 10 μM before perfusion of bacteria, control about 50% after 4 h): ~10%
- bacterial adhesion in static conditions (absence of flow) (hCMEC/D3 cells [4]): No significant difference; also recorded: did not reduce; also recorded: similar

Molecule: CC(C)NCC(O)COc1cccc2ccccc12 (centres unmarked) [propranolol]
- reversal of the effect of isoproterenol pre-treatment on Nm-promoted ezrin recruitment (hCMEC/D3 cells [3]; 100 nM propranolol added during pre-incubation with 10 μM isoproterenol): blocked the effect of isoproterenol
- number of ezrin-containing cortical plaques elicited by Nm, agent alone (hCMEC/D3 cells [3]; preincubation with saturating propranolol alone): no effect

Molecule: GRK2 siRNA: small interfering RNA targeting human GRK2 (SEQ ID NO: 6) (guide AAGAAGUACGAGAAGCUGGAGUU; chemistry not given here)
- ezrin recruitment / ezrin-containing cortical plaques under Nm colonies after siRNA (hCMEC/D3 cells [3]; siRNA-treated hCMEC/D3 cells): inhibited
- βarr2 recruitment under Nm colonies after siRNA (hCMEC/D3 cells [3]; siRNA-treated hCMEC/D3 cells, βarr2-GFP readout): inhibited

Molecule: βarr1 and βarr2 siRNAs: small interfering RNAs targeting human βarrestin-1 (SEQ ID NO: 4) and βarrestin-2 (SEQ ID NO: 5) (guide 1 AAAGCCUUCUGCGCGGAGAAU; guide 2 GGCUUGUCCUUCCGCAAAGAC; listed as RNA, chemistry not given here)
- recruitment of VE-cadherin, p120-catenin, F-actin and ezrin into cortical plaques after siRNA (hCMEC/D3 cells [3]; siRNA-treated Nm-infected hCMEC/D3 cells): markedly and simultaneously affected
- Src recruitment under Nm colonies after siRNA (hCMEC/D3 cells [3]; siRNA-treated hCMEC/D3 cells): markedly reduced
- ezrin recruitment / ezrin-containing cortical plaques under Nm colonies after siRNA (hCMEC/D3 cells [3]; siRNA-treated hCMEC/D3 cells): decrease
